# Laboratory results reported in patent publication US6780397B2, “Biomolecule conjugation strategy using novel water-soluble phosphine-based chelating agents” (Curators of the University of Missouri, priority 1998, dated 2004).
# Experiment: Stability of —PH2 compounds under storage and reaction conditions
# Type: physicochemical
# From the text: As a result of working with the Br(CH2)3 PH2 intermediate, it was recognized that the intermediate was unexpectedly stable under a variety of storage and reaction conditions.
# Furthermore, the reactivity of the —PH2 groups in these compounds toward molecules containing a wide spectrum of functional groups (including carboxylic acids, amines, thiols, and proteins) was remarkably low or non-measurable.
Structure (SMILES),"stability to reaction conditions of solid phase peptide synthesis (HBTU, piperidine, solutions in DMF, trifluoroacetic acid wash)",oxidation of —PH2 groups (during SPPS and analysis),stability profile (wider range of chemical conditions than used with the Br(CH2)3PH2 intermediate),"stability under storage and reaction conditions (variety of solvents, wide pH range and temperature range)"
"O=C(O)CCCCC(CCSCCCP)SCCCP (stereo not shown) [(PH2)2S2—COOH, H2P(CH2)3SCH2CH2CH((CH2)4COOH)S(CH2)3PH2]",stable,resistant to oxidation,much improved stability profile,–
"PCCCBr.[HH] [Br(CH2)3 PH2, 3-bromo-propyl phosphine hydride]",–,–,–,reasonably stable
